From ChEMBL document CHEMBL1201862, “PubChem BioAssay data set” (2004)
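Tested at 5 concentrations; 48 h exposure; 96-well plates; endpoints linearly interpolated, else capped at highest concentration. The concentration for 50% growth inhibition is given as GI50.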 Calls of active or inactive are those of the source. Rule as the data show it: active = GI50 up to about 1.1 µM and inactive = higher.

How the values were obtained:
Experiment in all cases: DTP human tumour cell line panel, 48 h
A549 = test system: A549
HCC 2998 = test system: HCC 2998
HOP-62 = test system: HOP-62
MOLT-4 = test system: MOLT-4
OVCAR-3 = test system: OVCAR-3
OVCAR-4 = test system: OVCAR-4
OVCAR-5 = test system: OVCAR-5
OVCAR-8 = test system: OVCAR-8
RPMI-8226 = test system: RPMI-8226
SF-295 = test system: SF-295
SK-MEL-2 = test system: SK-MEL-2
SN12C = test system: SN12C
SNB-75 = test system: SNB-75
U-251 = test system: U-251
CAKI-1 = test system: CAKI-1
NCI-H522 = test system: NCI-H522

Measured: GI50

Cc1cc(C)n(-c2ccnc3cc(Cl)ccc23)n1
inactive: A549 > 100 µM | HCC 2998 > 100 µM | HOP-62 > 100 µM | MOLT-4 > 100 µM | OVCAR-3 > 100 µM | OVCAR-4 > 100 µM | OVCAR-5 > 100 µM | OVCAR-8 > 100 µM | RPMI-8226 > 100 µM | SF-295 > 100 µM | SK-MEL-2 > 100 µM | SN12C > 100 µM | SNB-75 > 100 µM | U-251 > 100 µM

C/N=c1\ss/c(=N\C(=S)N(C)C)n1C
inactive: A549 > 100 µM | CAKI-1 > 100 µM | HCC 2998 > 100 µM | HOP-62 > 100 µM | MOLT-4 > 100 µM | OVCAR-4 > 100 µM | OVCAR-5 > 100 µM | OVCAR-8 > 100 µM | RPMI-8226 > 100 µM | SF-295 > 100 µM | SK-MEL-2 > 100 µM | SN12C > 100 µM | SNB-75 > 100 µM | U-251 > 100 µM

CCNC1C2(CCCCC2)NC(=O)C12CCCCC2 (stereo unspecified)
inactive: A549 > 100 µM | CAKI-1 > 100 µM | HCC 2998 > 100 µM | HOP-62 > 100 µM | MOLT-4 > 100 µM | OVCAR-3 > 100 µM | OVCAR-4 > 100 µM | OVCAR-5 > 100 µM | OVCAR-8 > 100 µM | RPMI-8226 > 100 µM | SF-295 > 100 µM | SK-MEL-2 > 100 µM | SNB-75 > 100 µM | U-251 > 100 µM

O=C(NCCNCCO)N/N=C/c1ccccc1
inactive: A549 > 100 µM | MOLT-4 > 100 µM | NCI-H522 > 100 µM | OVCAR-3 > 100 µM | OVCAR-4 > 100 µM | OVCAR-8 > 100 µM | SF-295 > 100 µM | SK-MEL-2 > 100 µM | SN12C > 100 µM | SNB-75 > 100 µM | U-251 > 100 µM

CCC12C=CCN3CCC4(c5cc(C6(C(=O)OC)CCCCCc7c6[nH]c6ccccc76)c(OC)cc5N(C)C4C(O)(C(=O)OC)C1OC(C)=O)C32 (stereo unspecified)
inactive: A549 3.02 µM | CAKI-1 2.7 µM | HCC 2998 2.04 µM | HOP-62 3.72 µM | MOLT-4 2.14 µM | OVCAR-3 3.83 µM | OVCAR-4 2.95 µM | OVCAR-5 1.9 µM | OVCAR-8 3.06 µM | RPMI-8226 2.47 µM | SF-295 1.91 µM | SK-MEL-2 1.74 µM | SN12C 3.63 µM | SNB-75 2.3 µM | U-251 2.08 µM

CCOC(=O)NC(=O)c1cn(C2OC(COC(=O)CCCCCCCCC(=O)OCC3OC(n4cc(C(=O)NC(=O)OCC)c(=O)[nH]c4=O)C4OC(C)(C)OC34)C3OC(C)(C)OC32)c(=O)[nH]c1=O (stereo unspecified)
inactive: A549 90.4 µM | CAKI-1 > 100 µM | HCC 2998 57.3 µM | HOP-62 > 100 µM | MOLT-4 35.6 µM | OVCAR-3 75.9 µM | OVCAR-4 57 µM | OVCAR-5 > 100 µM | OVCAR-8 78 µM | RPMI-8226 44 µM | SF-295 > 100 µM | SK-MEL-2 52.1 µM | SN12C 83.8 µM | SNB-75 56.9 µM

CCOC(=O)NC(=O)c1cn(CCOC(=O)CCCCCCCCC(=O)OCCn2cc(C(=O)NC(=O)OCC)c(=O)[nH]c2=O)c(=O)[nH]c1=O
inactive: A549 > 100 µM | CAKI-1 > 100 µM | HCC 2998 > 100 µM | HOP-62 > 100 µM | MOLT-4 > 100 µM | OVCAR-3 > 100 µM | OVCAR-4 > 100 µM | OVCAR-5 > 100 µM | OVCAR-8 > 100 µM | RPMI-8226 > 100 µM | SF-295 > 100 µM | SK-MEL-2 > 100 µM | SN12C > 100 µM | SNB-75 > 100 µM
